According to patent US20040157793A1, “Modified nucleosides as antiviral agents” (priority 2002, published 2004):
Like-named read-outs stand apart in the source and are kept apart here.

Experiments:
[1] = system: HBV (wild-type virus: rtM204) in HepAD38 cells; experiment: Suppression of HBV production in HepAD38 cells, viral DNA in supernatant by Q-PCR; type: cell-based; conditions: for HepAD38 log10 inhibition at 10 μM: HBV DNA in supernatant; for EC90: read-out: HepAD38 EC90
Source text: The HepAD38 (wild-type virus: rtM204) and HepAD79 (3TC-resistant virus: rtV204) (Stuyver L. J. et al. 2001, Hepatol., 33:751-757) cell lines replicate HBV under conditions that can be regulated with tetracycline (King R. W. et al. 2000, Methods in Molecular Medicine, Vol 24: Antiviral Methods and Protocols, 43-50 (eds: D. Kinchington & R. F. Schinazi), Humana Press Inc, Totowa, N.J.); Ladner, et al. 1997, Antimicrob. Agents Chemother., 41:1715-1720; Ladner S. K., et al. 1998a. Antivir. Chem. Chemother., 9:65-72; Ladner S. K., et al. 1998b. Antimicrob. Agents Chemother., 42:2128-31). In the presence of this drug, the cell supernatant is virtually free of viral DNA, but upon the removal of tetracycline from the culture medium, these cells secrete virus-like particle into the supernatant.
(§1) HepAD38 and HepAD79 cells were seeded at 5×10^4 cells/well in a 96-well plate in seeding medium (DMEM/F12+10% FBS, 50 μg/ml penicillin, 50 μg/ml streptomycin, 100 μg/ml kanamycin, 400 μg/ml G418, and 0.3 μg/ml tetracycline) and incubated for 2 days at 37° C. in a 5% CO2, humidified atmosphere. The seeding media was removed, and cells were washed 3 times with PBS. Cells were then incubated with 200 μL assay medium (DMEM/F12+10% FBS+P/S/K) containing either (i) no compound, (ii) test compound, or (iii) control drugs at 10 μM. After an additional 5-day (HepAD38) or 13-day incubation (HepAD79, with renewal of the culture media at day 7), the cell supernatant was collected and stored at −70° C. until HBV DNA was quantified.
HBV DNA was extracted from supernatant using QiaAmp DNA blood Mini kit (Qiagen) and nucleic acids eluted in 200 μl Viral DNA was detected by quantitative PCR (Q-PCR). The TaqMan probe and primers were designed using the Primer Express software (Applied Biosystems) and cover highly conserved sequences complementary to the DNA sequences present in HBsAg. A total of 5 μl DNA was amplified using reagents and conditions as described by the manufacturer (Applied Biosystems). […]

[2] = system: HBV (3TC-resistant virus: rtV204) in HepAD79 cells; experiment: microbe, parasite or virus in culture; type: cell-based; conditions: for HepAD79 log10 inhibition at 10 μM: HBV DNA in supernatant; for activity against the mutant virus (in words): rtV204 mutant virus; for FI EC90 AD79/EC90 AD38: fold increase, EC90 HepAD79 over EC90 HepAD38
Experimental: as §1
HBV DNA was extracted from supernatant using QiaAmp DNA blood Mini kit (Qiagen) and nucleic acids eluted in 200 μl Viral DNA was detected by quantitative PCR (Q-PCR). The TaqMan probe and primers were designed using the Primer Express software (Applied Biosystems) and cover highly conserved sequences complementary to the DNA sequences present in HBsAg. A total of 5 μl DNA was amplified using reagents and conditions as described by the manufacturer (Applied Biosystems).
Subsequently, the time course of viral induction in HepAD79 cells over a 13-day incubation period was investigated.
Therefore, the DNA extracted from the cell supernatant was also amplified by Q-PCR for the presence of cellular DNA (the rRNA gene).

[3] = system: HepG2 cells (mitochondrial COXII DNA); conditions: for effect on mitochondrial DNA levels (in words): HepG2, up to 100 μM
HepG2 cells [4] = experiment: Lactic acid production in HepG2 cells; type: cell-based, human; conditions: HepG2, up to 100 μM, 14 days
Experimental: (§2) In addition, these compounds were also tested in the HepG2 cell line (14-day treatment, 100 μM) for their ability to reduce mitochondrial DNA levels (using a newly designed normalized Q-PCR protocol as described in Stuyver, L. J., et al. 2002, Antimicrob. Agents Chemother., 46:3854-3860) or lactic acid production.

HepG2 cells [5] = experiment: Cell growth of HepG2 cells during 14-day treatment; type: cell-based, human; conditions: HepG2, up to 100 μM, 14 days
Experimental: as §2

[6] = HepAD38 cells, 5-day incubation
[7] = HepAD38 cells, 5-day incubation, concentration reducing viral load by 90%, unit printed in text only
[8] = HepAD79 cells, 13-day incubation
[9] = HepAD79 cells, 13-day incubation, read-out: HepAD79 EC90
[10] = Hepatitis B virus, 312 h, read-out: HepAD79 EC90, HepAD79 cells, 13-day incubation
[11] = HepG2, 14-day treatment, 100 μM

SMILES | HepAD38 log10 inhibition at 10 μM [1, 6] [log10] | EC90 [1, 7] [nM] | HepAD79 log10 inhibition at 10 μM [2, 8] [log10] | EC90 [2, 9] [nM] | Average ΔCt ± s.d. MitCoxII ([3]; HepG2, 14-day treatment, 10 μM) | Average ΔCt ± s.d. rDNA ([3]; HepG2, 14-day treatment, 10 μM) | Average ΔΔCt ± s.d. MitCOXII-rDNA ([3]; HepG2, 14-day treatment, 10 μM) | Fold difference in COXII DNA levels normalized for rDNA (range) relative to control ([3]; HepG2, 14-day treatment, 10 μM) | Average ΔCt ± s.d. MitCoxII [3, 11] | Average ΔCt ± s.d. rDNA [3, 11] | Average ΔΔCt ± s.d. MitCOXII-rDNA [3, 11] | Fold difference in COXII DNA levels normalized for rDNA (range) relative to control [3, 11] | also measured
Nc1nc(=O)n(C2CSC(CO)O2)cc1F (single isomer, unassigned; (-)) [(−)-FTC, (−)-enantiomer of 2-hydroxymethyl-5-(5-fluorocytosin-1-yl)-1,3-oxathiolane] | 1.59 ± 0.14 | 1160 ± 660 | 0.28 | > 10000 | – | – | – | – | – | – | – | – | –
Nc1ccn([C@@H]2CS[C@H](CO)O2)c(=O)n1 [3TC, (−)-enantiomer of 2-hydroxymethyl-5-(cytosin-1-yl)-1,3-oxathiolane] | 1.97 ± 0.28 | – | 0.67 ± 0.03 | – | – | – | – | – | – | – | – | – | EC90 ([1]; Hepatitis B virus, 120 h, HepAD38 cells, 5-day incubation, concentration reducing viral load by 90%): 50 nM; EC90 [2, 10]: > 10000 nM
Nc1ncnc2c1ncn2CCOCP(=O)(O)O [Adefovir] | 0.72 ± 0.12 | – | 0.91 ± 0.11 | – | – | – | – | – | – | – | – | – | EC90 ([1]; Hepatitis B virus, HePAD38, 120 h): > 10000 nM; EC90 [2, 10]: > 10000 nM; EC90 ([2]; read-out: HepAD79 EC90, HepAD79 cells, 13-day incubation): ~10000 nM
Nc1ccn([C@H]2O[C@@H](CO)C=C2F)c(=O)n1 [L-2′F-D4C] | 1.77 ± 0.13 | 740 | 0.33 | > 10000 | −0.36 ± 0.02 | −0.06 ± 0.27 | −0.30 ± 0.28 | 1.23 (1.02-1.50) | 0.33 ± 0.21 | 0.53 ± 0.60 | −0.20 ± 0.40 | 1.15 (0.87-1.52) | inhibition of wild type HBV (in words) [1]: potent inhibitors; activity against the mutant virus (in words) [2]: completely inactive
Nc1nc(=O)n([C@H]2O[C@@H](CO)C=C2F)cc1F [L-2′F-D4FC] | 1.91 ± 0.13 | 630 | 0.23 | > 10000 | 0.05 ± 0.07 | −0.23 ± 0.20 | 0.28 ± 0.17 | 0.82 (0.73-0.92) | 0.83 ± 0.17 | 0.85 ± 0.51 | −0.02 ± 0.64 | 1.01 (0.65-1.58) | inhibition of wild type HBV (in words) [1]: potent inhibitors; activity against the mutant virus (in words) [2]: completely inactive
Nc1ccn([C@@H]2C=C(F)[C@H](CO)O2)c(=O)n1 [L-3′F-D4C, β-L-3′-fluoro-2′,3′--didehydro-2′, 3′--dideoxycytadine] | 2.68 ± 0.44 | 220 ± 150 | 1.65 ± 0.24 | 2300 | 0.39 ± 0.15 | −0.11 ± 0.38 | 0.49 ± 0.51 | 0.71 (1.02-0.50) | 0.20 ± 0.20 | −0.28 ± 0.14 | 0.48 ± 0.13 | 0.72 (0.79-0.65) | EC90 ([1]; HepAD38 cells, 5-day incubation, concentration reducing viral load by 90%, unit printed in text only, listed as L-3F-D4C): 250 nM; FI EC90 AD79/EC90 AD38 [2]: 10.5; total lactic acid production (in words) (HepG2 cells [4]): no increase in total lactic acid production; effect on cell growth (in words) (HepG2 cells [5]): did not show any reduction in cell growth; Average ΔCt ± s.d. MitCoxII ([3]; HepG2, 14-day treatment, 1 μM): 0.13 ± 0.16; Average ΔCt ± s.d. rDNA ([3]; HepG2, 14-day treatment, 1 μM): 0.08 ± 0.25; Average ΔΔCt ± s.d. MitCOXII-rDNA ([3]; HepG2, 14-day treatment, 1 μM): 0.05 ± 0.26; Fold difference in COXII DNA levels normalized for rDNA (range) relative to control ([3]; HepG2, 14-day treatment, 1 μM): 0.96 (1.16-0.80); effect on mitochondrial DNA levels (in words) ([3]; 14 days): no reductions in mitochondrial DNA levels
Nc1nc(=O)n([C@@H]2CC[C@H](CO)O2)cc1F [L-FddC] | 2.03 | 310 | 0.02 | > 10000 | – | – | – | – | – | – | – | – | –
Nc1ccn([C@@H]2C=C[C@H](CO)O2)c(=O)n1 [L-d4C] | 2.79 ± 0.08 | 60 ± 20 | 1.54 ± 0.38 | 960 | 2.72 ± 0.37 | 3.96 ± 0.87 | −1.24 ± 0.50 | 2.36 (1.67-3.35) | 6.82 ± 0.33 | 10.14 ± 0.77 | −3.32 ± 0.75 | 9.99 (5.92-16.85) | FI EC90 AD79/EC90 AD38 [2]: 16; effect on cell growth (in words) (HepG2 cells [5]): reduced the cell growth significantly; effect on mitochondrial DNA levels (in words) ([3]; 14 days): did not specifically affect the mitochondrial DNA levels
Nc1ccn([C@H]2CC[C@@H](CO)O2)c(=O)n1 [ddC, 2′,3′-dideoxycytidine] | – | – | – | – | 7.70 ± 0.08 | 0.92 ± 0.52 | – | – | – | – | – | – | Average ΔΔCt ± s.d. MitCOXII-rDNA ([3]; human, 14 days, 10 μM): 6.78 ± 0.56; Fold difference in COXII DNA levels normalized for rDNA (range) relative to control ([3]; human, 14 days, 10 μM): 0.01 (0.01-0.01)
